What was measured:
Format in all cases: in vivo, Wister strain - Albino rats
[1] = test system: Cotton pellet induced granuloma; test: Cotton wool pellet induced granuloma; details: 100 mg/kbw oral once daily
Procedure: (§1) Dose Levels • Control: One ml of 1% gum acacia • Standard: 100 mg/kbw (kilogram body weight) in acute models and sub-acute models. • T1:100 mg/kbw and T2:200 mg/kbw in Carrageenin and Turpentine models and T1: 200 mg/kbw and T2:400 mg/kbw in Cotton pellet granuloma and Formalin induced arthritis model. […] All drugs (dose) were given only once a day. 2. Method of performance study • Main assays: The test article, the standard and control were administered: a. Carrageenin induced rat paw edema: The respective drug was administered in single dose through mouth 1 hour before the administration of phlogistic agent. The method used comprises of the study of the acute inflammatory reaction induced by injecting the phlogistic agent carrageenin into the subplantar surface of the right hindpaw of the rat. […] Lesser the mean paw volume more was the anti-inflammatory potential and vice versa. • b. Turpentine induced arthritis: The respective drug was administered in single dose through mouth 1 hour before the administration of phlogistic agent. […] The maximum diameter of the right knee joint was measured at ‘0’ hour and at the end of ‘4’ hours after the injection with the help of screw gauge and the difference between ‘0’ hour and ‘4’ hour reading gave the actual arthritis. […]

[2] = test system: Carrageenin induced rat paw edema; test: Carrageenin induced rat paw edema; details: 100 mg/kbw oral single dose
Procedure: Dose Levels • Control: One ml of 1% gum acacia • Standard: 100 mg/kbw (kilogram body weight) in acute models and sub-acute models. • T1:100 mg/kbw and T2:200 mg/kbw in Carrageenin and Turpentine models and T1: […] All drugs (dose) were given only once a day. 2. Method of performance study • Main assays: The test article, the standard and control were administered: a. Carrageenin induced rat paw edema: The respective drug was administered in single dose through mouth 1 hour before the administration of phlogistic agent. The method used comprises of the study of the acute inflammatory reaction induced by injecting the phlogistic agent carrageenin into the subplantar surface of the right hindpaw of the rat. […] Lesser the mean paw volume more was the anti-inflammatory potential and vice versa. • b. Turpentine induced arthritis: The respective drug was administered in single dose through mouth 1 hour before the administration of phlogistic agent. This is one of the commonly employed models to induce arthritis in the rat; 0.01 ml turpentine was injected to the right knee joint. The maximum diameter of the right knee joint was measured at ‘0’ hour and at the end of ‘4’ hours after the injection with the help of screw gauge and the difference between ‘0’ hour and ‘4’ hour reading gave the actual arthritis. […]

[3] = test system: Formalin induced peritonitis; test: Formalin induced experimental peritonitis; details: 100 mg/kbw oral single dose
Procedure: as §1

[4] = test system: Turpentine induced arthritis; test: Turpentine induced arthritis; details: 100 mg/kbw oral single dose
Procedure: Dose Levels • Control: One ml of 1% gum acacia • Standard: 100 mg/kbw (kilogram body weight) in acute models and sub-acute models. • T1:100 mg/kbw and T2:200 mg/kbw in Carrageenin and Turpentine models and T1: […] All drugs (dose) were given only once a day. 2. Method of performance study • Main assays: The test article, the standard and control were administered: a. Carrageenin induced rat paw edema: The respective drug was administered in single dose through mouth 1 hour before the administration of phlogistic agent. The method used comprises of the study of the acute inflammatory reaction induced by injecting the phlogistic agent carrageenin into the subplantar surface of the right hindpaw of the rat. […] Lesser the mean paw volume more was the anti-inflammatory potential and vice versa. • b. Turpentine induced arthritis: The respective drug was administered in single dose through mouth 1 hour before the administration of phlogistic agent. This is one of the commonly employed models to induce arthritis in the rat; 0.01 ml turpentine was injected to the right knee joint. The maximum diameter of the right knee joint was measured at ‘0’ hour and at the end of ‘4’ hours after the injection with the help of screw gauge and the difference between ‘0’ hour and ‘4’ hour reading gave the actual arthritis. Lesser the mean diameter right knee joint more the anti-inflammatory potential and vice versa. • c. Formalin induced experimental peritonitis: The respective drug was administered in single dose through mouth 1 hour before the administration of phlogistic agent by injecting 1 ml of 1% formalin in to the peritoneal cavity. […] Lesser the mean exudates more is the anti-inflammatory potential and vice versa. • d. Cotton wool pellet induced granuloma: The respective drug was administered by mouth in single dose one hour prior to the cotton pellet implantation on the first day and subsequently every day for next five days. The extent of formation of foreign body granuloma (granulation tissue) is the main criterion for evaluating anti-inflammatory activity. […]

SMILES: COc1ccc2c(c1)c(CC(=O)O)c(C)n2C(=O)c1ccc(Cl)cc1 [Indomethacin]
- Inhibitory Potency Values [1]: 2.38
- Mean volume (in mg.) (±) ([1]; granulation tissue weight on dried cotton pellet, sixth day): 6.54 ± 0.36 mg
- Inhibitory Potency Values [2]: 3.98
- Mean volume (in ml.) (±) SEM ([2]; paw edema volume, difference 0 h to 4 h): 0.88 ± 0.52 mL
- Inhibitory Potency Values [3]: 1.38
- Mean volume (in ml.) (±) SEM ([3]; peritoneal exudate volume after 4 hours): 0.57 ± 0.14 mL
- % inhibition with respect to control [4]: 84.95%
- Inhibitory Potency Values [4]: 0.85
- Mean volume (in mm.) (±) SEM ([4]; right knee joint diameter, difference 0 h to 4 h): 1.55 ± 0.19 mm

— patent US20070248694A1, “Anti-inflammatory properties of a standardized extract from Euphorbia hirta (PM-251) activity and for treating conditions of inflammation” (PhytoMyco Research Corporation, priority 2006, published 2007)
